Experimental findings from patent US9714235B2, “Quinazoline derivatives, compositions thereof, and use as pharmaceuticals” (Shanghai Fochon Pharmaceutical Co., Ltd., priority 2013, dated 2017) are described below.

The term IC50 denotes the concentration needed to halve the response being measured.

For one experiment, the system named is NCI-N87 tumor cells. Nature of the experiment: N87 tumor in vivo study. Particulars: for Average Tumor Volume Day 21 / Inhibition rate / T/C: Day 21; for Average Tumor Volume Day 0: Day 0 (baseline). On the set-up: species or system Female BALB/cA-nude mice. How it is done:
Female BALB/cA-nude mice were implanted with NCI-N87 tumor cells. Tumor measurements were recorded twice a week. Randomize animals to groups (Day 0) when tumors reached an average size of 60-150 mm^3. Group size was 6 mice. Test compound was administered p.o. once daily for 21 days. Tumor inhibition values were determined at Day 21.
Tumor volume (V) was calculated as follow: V=½×a×b, where a and b are the length and width of the tumor respectively. Relative tumor proliferation rate was calculated as follow: T/C (%)=(T−T0)/(C−C0)×100, where T and C are the tumor volume of test compound group and control group on Day 21, T0 and C0 are the tumor volume of test compound group and control group on Day 0.

Experiment [1] deals with BT474 (EGFR overexpression) cells. Nature of the experiment: Cell proliferation assay (MTS), BT474. The format is cell-based. Particulars: Homo sapiens, BT-474, 168 h, 7 d incubation. Here is the method: (§1) Cell Proliferation Asssay
(§2) Materials and Preparation of Reagents
(§3) MTS testing kit was purchased from Promega. […] Dimethyl sulfoxide (DMSO) was purchased from Sigma.
(§4) Inhibition Activity of Cell Proliferation
(§5) In this assay, inhibition of EGFR and ErbB2 was detected by the inhibition of BT474 and N87 cells proliferation. BT474 cells were cultured in culture flasks to 40-80% confluence in DMEM plus 10% fetal bovine serum. […] Cells were collected and plated onto 96-well plates at desired cell density (BT474: 1000 cells/well; N87: 1000 cells/well). BT474 plates were incubated 48 h at 37° C., with 5% CO2 to adhere. N87 plates were incubated overnight at 37° C., with 5% CO2 to adhere. […] Place BT474 plates at 37° C., with 5% CO2 for 7d. Place N87 plates at 37° C., with 5% CO2 for 72 h. After removing the medium, 20 μl MTS/100 μl medium mixture solution were added to each well and incubate the plates for exactly 2 hours. Measure absorbance at 490 nm and 650 nm (reference wavelength). IC50 was calculated using GraphPad Prism 5.0.

In experiment [2] the test system is N87 (EGFR and ErbB2 overexpression) cells. Nature of the experiment: Cell proliferation assay (MTS), N87. Format: cell-based. Particulars: 72 h incubation. Here is the method:
as §1, §2, §3, §4, §5

[3] abbreviates: 20 mg/kg p.o. once daily for 21 days.
Setting [4] is: 2 mg/kg p.o. once daily for 21 days.
Setting [5] is: 5 mg/kg p.o. once daily for 21 days.
Where [6] appears, read: 10 mg/kg p.o. once daily for 21 days.
Where [7] appears, read: 320 mg/kg p.o. once daily for 21 days.

With `CN(C)C/C=C/C(=O)Nc1cc2c(Nc3ccc(F)c(Cl)c3)ncnc2cc1O[C@H]1CCOC1` [Afatinib, reference compound], in the experiment on NCI-N87 tumor cells (setting [3]), the “Average Tumor Volume Day 21” value amounted to 72.9 ± 7.9 mm^3, the Inhibition rate came to 138% and the T/C was −38%. Also, the “Average Tumor Volume Day 0” value in the experiment with NCI-N87 tumor cells (20 mg/kg p.o. once daily) turned out to be 117.2 ± 8.3 mm^3.

For the compound `COc1cc2ncnc(Nc3ccc(F)c(Cl)c3)c2cc1NC(=O)/C=C/CN1CCC1CO` (stereo not drawn) [Example 1, (E)-N-(4-(3-chloro-4-fluorophenylamino)-7-methoxyquinazolin-6-yl)-4-(2-(hydroxymethyl)azetidin-1-yl)but-2-enamide], the IC50 in experiment [1] turned out to be 2.3 nM; in experiment [2], 5 nM.

Regarding `COC[C@@H]1CCN1C/C=C/C(=O)Nc1cc2c(Nc3ccc(F)c(Cl)c3)ncnc2cc1OC` [Example 3, (S,E)-N-(4-(3-chloro-4-fluorophenylamino)-7-methoxyquinazolin-6-yl)-4-(2-(methoxymethyl)azetidin-1-yl)but-2-enamide], the IC50 turned out to be 21.5 nM in experiment [1] and 14.2 nM in experiment [2].

`CCOc1cc2ncnc(Nc3ccc(F)c(Cl)c3)c2cc1NC(=O)/C=C/CN1CC[C@@H]1COC` [Example 4, (R,E)-N-(4-(3-chloro-4-fluorophenylamino)-7-ethoxyquinazolin-6-yl)-4-(2-(methoxymethyl)azetidin-1-yl)but-2-enamide]: in experiment [1], the concentration for half-maximal inhibition (IC50) amounted to 2 nM. Further, in the experiment with NCI-N87 tumor cells (setting [4]), the “Average Tumor Volume Day 21” value turned out to be 436.6 ± 60.5 mm^3, the Inhibition rate is given as 73% and the T/C was determined as 27%. In addition, the “Average Tumor Volume Day 0” value with NCI-N87 tumor cells (2 mg/kg p.o. once daily) amounted to 105.6 ± 9.9 mm^3. In the experiment on NCI-N87 tumor cells (setting [5]), the “Average Tumor Volume Day 21” value came to 49.7 ± 5.4 mm^3, the Inhibition rate is reported as 154% and the T/C was −54%. The “Average Tumor Volume Day 0” value with NCI-N87 tumor cells (5 mg/kg p.o. once daily) is reported as 109.1 ± 10.1 mm^3.

In turn, `COCCOc1cc2ncnc(Nc3ccc(F)c(Cl)c3)c2cc1NC(=O)/C=C/CN1CC[C@@H]1COC` [Example 6, (R,E)-N-(4-(3-chloro-4-fluorophenylamino)-7-(2-methoxyethoxy)quinazolin-6-yl)-4-(2-(methoxymethyl)azetidin-1-yl)but-2-enamide] returned an IC50 in experiment [1] of 1.4 nM. For the same compound, in the experiment with NCI-N87 tumor cells (setting [5]), the “Average Tumor Volume Day 21” value worked out at 176.3 ± 24.2 mm^3, the Inhibition rate amounted to 95% and the T/C amounted to 5%. The “Average Tumor Volume Day 0” value with NCI-N87 tumor cells (5 mg/kg p.o. once daily) turned out to be 116.9 ± 7.8 mm^3. In the experiment on NCI-N87 tumor cells (setting [6]), the “Average Tumor Volume Day 21” value amounted to 49.0 ± 3.9 mm^3, the Inhibition rate is listed as 157% and the T/C is given as −57%. Also, in the experiment on NCI-N87 tumor cells (10 mg/kg p.o. once daily), the “Average Tumor Volume Day 0” value is listed as 114.8 ± 7.8 mm^3.

Consider `COCCOc1cc2ncnc(Nc3ccc(F)c(Cl)c3)c2cc1NC(=O)/C=C/CN1CC[C@H]1COC` [Example 7, (S,E)-N-(4-(3-chloro-4-fluorophenylamino)-7-(2-methoxyethoxy)quinazolin-6-yl)-4-(2-(methoxymethyl)azetidin-1-yl)but-2-enamide], for which the IC50 in experiment [1] was determined as 5.8 nM.

For the compound `O=C(/C=C/CN1CCC1CO)Nc1cc2c(Nc3ccc(F)c(Cl)c3)ncnc2cc1OCC1CC1` (stereo not drawn) [Example 8, (E)-N-(4-(3-chloro-4-fluorophenylamino)-7-(cyclopropylmethoxy)quinazolin-6-yl)-4-(2-(hydroxymethyl)azetidin-1-yl)but-2-enamide], the IC50 was 9.5 nM in experiment [1] and 11.8 nM in experiment [2].

Compound `COC[C@H]1CCN1C/C=C/C(=O)Nc1cc2c(Nc3ccc(F)c(Cl)c3)ncnc2cc1OCC1CC1` [Example 9, (R,E)-N-(4-(3-chloro-4-fluorophenylamino)-7-(cyclopropylmethoxy)quinazolin-6-yl)-4-(2-(methoxymethyl)azetidin-1-yl)but-2-enamide] yielded an IC50 in experiment [1] of 6.6 nM. The “Average Tumor Volume Day 21” value in the experiment on NCI-N87 tumor cells (setting [5]) is on record as 349.3 ± 43.8 mm^3; in the experiment on NCI-N87 tumor cells (setting [6]), 60.3 ± 6.9 mm^3. The Inhibition rate with NCI-N87 tumor cells (setting [5]) is 81%; in the experiment with NCI-N87 tumor cells (setting [6]) it was 150%. In addition, the T/C in the experiment with NCI-N87 tumor cells (setting [5]) is 19%; with NCI-N87 tumor cells (setting [6]), −50%. The “Average Tumor Volume Day 0” value with NCI-N87 tumor cells (5 mg/kg p.o. once daily) was 124.1 ± 8.5 mm^3; in the experiment on NCI-N87 tumor cells (10 mg/kg p.o. once daily) it was 120.2 ± 13.0 mm^3.

Take `COC[C@@H]1CCN1C/C=C/C(=O)Nc1cc2c(Nc3ccc(F)c(Cl)c3)ncnc2cc1OCC1CC1` [Example 10, (S,E)-N-(4-(3-chloro-4-fluorophenylamino)-7-(cyclopropylmethoxy)quinazolin-6-yl)-4-(2-(methoxymethyl)azetidin-1-yl)but-2-enamide]: the IC50 in experiment [1] was 21.7 nM.

In the case of `O=C(/C=C/CN1CCC1CO)Nc1cc2c(Nc3ccc(F)c(Cl)c3)ncnc2cc1O[C@H]1CCOC1` (stereo partly drawn) [Example 11, (E)-N-(4-(3-chloro-4-fluorophenylamino)-7-((S)-tetrahydrofuran-3-yloxy)quinazolin-6-yl)-4-(2-(hydroxymethyl)azetidin-1-yl)but-2-enamide], the IC50 was found to be 3.9 nM in experiment [1] and 9.6 nM in experiment [2].

As for `COCC1CCN1C/C=C/C(=O)Nc1cc2c(Nc3ccc(F)c(Cl)c3)ncnc2cc1O[C@H]1CCOC1` (stereo partly drawn) [Example 12, (E)-N-(4-(3-chloro-4-fluorophenylamino)-7-((S)-tetrahydrofuran-3-yloxy)quinazolin-6-yl)-4-(2-(methoxymethyl)azetidin-1-yl)but-2-enamide], the IC50 in experiment [1] stood at 2.9 nM; in experiment [2], 1.5 nM.

Consider `O=C(/C=C/CN1CCC1CO)Nc1cc2c(Nc3ccc(F)c(Cl)c3)ncnc2cc1OC[C@H]1COCCO1` (stereo partly drawn) [Example 13, (E)-N-(7-(((R)-1,4-dioxan-2-yl)methoxy)-4-(3-chloro-4-fluorophenylamino)quinazolin-6-yl)-4-(2-(hydroxymethyl)azetidin-1-yl)but-2-enamide], for which the 50% inhibitory concentration (IC50) in experiment [1] was 2.7 nM; in experiment [2] it was 13.5 nM.

Compound `COC[C@H]1CCN1C/C=C/C(=O)Nc1cc2c(Nc3ccc(F)c(Cl)c3)ncnc2cc1OC[C@H]1COCCO1` [Example 14, (E)-N-(7-(((R)-1,4-dioxan-2-yl)methoxy)-4-(3-chloro-4-fluorophenylamino)quinazolin-6-yl)-4-((R)-2-(methoxymethyl)azetidin-1-yl)but-2-enamide] gave an IC50 in experiment [1] of 2.9 nM.

Compound `COC[C@@H]1CCN1C/C=C/C(=O)Nc1cc2c(Nc3ccc(F)c(Cl)c3)ncnc2cc1OC[C@H]1COCCO1` [Example 15, (E)-N-(7-(((R)-1,4-dioxan-2-yl)methoxy)-4-(3-chloro-4-fluorophenylamino)quinazolin-6-yl)-4-((S)-2-(methoxymethyl)azetidin-1-yl)but-2-enamide] registered an IC50 in experiment [1] of 25 nM.

The compound `COC[C@@H]1CCN1C/C=C/C(=O)Nc1cc2c(Nc3ccc(F)c(Cl)c3)ncnc2cc1OC[C@H]1[C@@H]2COC[C@@H]21` [Example 20, (E)-N-(7-((1R,5S,6r)-3-oxabicyclo[3.1.0]hexan-6-ylmethoxy)-4-(3-chloro-4-fluorophenylamino)quinazolin-6-yl)-4-((S)-2-(methoxymethyl)azetidin-1-yl)but-2-enamide] yielded an IC50 in experiment [1] of 22.2 nM.

For `CS(=O)(=O)CCNCc1ccc(-c2ccc3ncnc(Nc4ccc(OCc5cccc(F)c5)c(Cl)c4)c3c2)o1` [Lapatinib, reference compound], in the experiment with NCI-N87 tumor cells (setting [7]), the Inhibition rate is 87% and the T/C worked out at 13%. For the same compound, the “Average Tumor Volume Day 0” value in the experiment with NCI-N87 tumor cells was 124.4 ± 7.3 mm^3.
